Columns and labels:
Assay type in all cases: in vivo
ICR mice = assay: Acute toxicity test; details: oral, up to 2000 mg/kg, 14 days
Description: Acute toxicity and reproductive toxicity tests were performed using mice to evaluate the toxicity of the compound of the present invention. The compound of formula 1 was orally administered to ICR mice at 6 weeks at the dosage of 50 mg/kg, 300 mg/kg and 2000 mg/kg, followed by observation on toxicity for 14 days. […] The result of reproductive toxicity test using C57BL/6 mice was also consistent with the above, which is no toxicity caused by the compound of formula 1 was observed. After oral-administration of the compound to the pregnant female mice, weight gain and growth speed of fetus were investigated.

ApoE−/− mouse = assay: Arteriosclerosis inhibiting effect, Sudan IV plaque staining; details: 2 mg/kg/day oral, high fat high cholesterol feeds, 28 days
Description: In vivo animal test using ApoE−/− mouse, which is an animal model for arteriosclerosis, was performed to confirm the arteriosclerosis inhibiting effect of the compound of the present invention. The animals were orally administered with 2 mg/kg/day of the compound of formula 1 of the present invention while feeding with high fat, high cholesterol feeds (20% fat, 1.25% cholesterol; AIN-93G diet). 28 days later, plaque staining was performed over the whole artery using Sudan IV to investigate the arteriosclerosis inhibiting effect of the compound by comparing the results between experimental and control groups. As a result, arteriosclerosis was 30% inhibited in ApoE−/− mouse treated with the compound of formula 1 of the present invention, compared with the control.

mice [1] = assay: GTT (glucose tolerance test), diabetes improving effect; details: oral pre-treatment 78 days
Description: GTT (glucose tolerance test) was performed to confirm the diabetes improving effect of the compound of the present invention. Glucose (1.5 g/Kg) was intra-abdominally administered to the mice pre-treated orally with samples for 78 days. Blood glucose was measured every hour. Fasting blood glucose was lower in the group treated with the compound of the present invention than in the group treated with vehicle or GW501516.

mice [2] = assay: Morris water maze test, treatment in pregnancy and lactation; details: 10 mg/kg oral to pregnant mice, control 24.2 sec
Description: An animal test was performed to investigate the therapeutic effect of the compound of the present invention on dementia and Parkinson's disease based on the memory improving effect thereof. To confirm the effect of the compound of the present invention in the period of brain development, the compound was orally administered to pregnant mice at the concentration of 10 mg/kg in the periods of pregnancy and lactation. Morris water maze test was performed to detect any changes of the brain functions of the treatment group and the control group.

C57BL/6 mice [3] = assay: Morris water maze test, LPS brain disease animal model
Description: The therapeutic effect of the compound of the present invention on dementia and Parkinson's disease based on the memory improving effect thereof was investigated using brain disease animal model (C57BL/6 mice at 10 weeks). First, LPS was injected into the mouse brain to construct brain disease animal model. The mice were divided into four groups according to the administration and exercise. The exercise was performed with treadmill at the speed of 2 meter/min for the first 5 minutes, at 5 meter/min for 5 minutes, at 8 meter/min for 5 minutes and at 20 meter/min for the last 5 minutes. At the finish, Morris water maze test was performed. As a result, the therapeutic effect of the compound of formula 1 of the present invention on dementia and Parkinson's disease via memory enhancement by the compound and exercise was confirmed in the brain disease animal model.

mice [4] = assay: Muscle endurance test, treatment during pregnancy and/or lactation, treadmill
Description: An animal test was performed to confirm muscle endurance strengthening and muscle function enhancing effect of the compound of the present invention. Most muscles are generated in the developmental stage. Thus, the compound of formula 1 (10 mg/Kg/day) were orally administered to pregnant mice in the period of either pregnancy or lactation or both pregnancy and lactation. […] Muscles were observed after removing skin. As a result, muscles of the treatment group were red, unlike the controlled one. ATPase staining and immunostaining were performed. As a result, type I muscle fiber was increased in the group treated with the compound of formula 1. The effect of the changes of the muscle fiber on the enhancement of muscle endurance and muscle function was investigated by using treadmill test. As a result, running time was much extended in the group treated with the compound of formula 1.

C57BL/6 mice [5] = assay: Obesity inhibitory effect, high-fat feed; details: 10 mg/Kg/day oral, 35% fat feed for 35 days; vehicle 58.9%
Description: An animal test using mice was performed to confirm the in vivo effect of the compound of the present invention. C57BL/6 (SLC Co.) mice at 14 weeks were used. To induce obesity, feeds containing 35% fat were given.

[6] = 10 mg/Kg/day oral to pregnant mice
[7] = 10 mg/Kg/day oral to pregnant mice, pregnancy
[8] = 10 mg/Kg/day oral, Pregnancy + lactation

Cc1cc(S[C@H](Cc2ccccc2)c2sc(-c3ccc(C(F)(F)F)cc3)nc2C)ccc1OCC(=O)O (racemic) [formula 1]
changes on weight and feed taking (ICR mice): no significant changes | arteriosclerosis inhibition compared with the control (ApoE−/− mouse): 30% | time of rapid blood glucose decrease (mice [1]; glucose 1.5 g/Kg intra-abdominal): 20 to 40 min | fasting blood glucose (mice [1]; compared with vehicle or GW501516 group): lower | average time spent to find the platform (mice [2]): 6.8 s | Results of water maze test (C57BL/6 mice [3]; Exercise (O), control 29 seconds): 13 s | Results of water maze test (C57BL/6 mice [3]; Exercise (X), control 36 seconds): 25 s | muscle colour after removing skin (mice [4]; [6]): red | weight gain and growth rate of fetuses versus control (mice [4]; [6]): not much different | Increasing rate (treatment group/control group), length (mice [4]; [7]): 2.4 times | Increasing rate (treatment group/control group), time (mice [4]; [7]): 2.3 times | Increasing rate (treatment group/control group), length (mice [4]; [8]): 3.0 times | Increasing rate (treatment group/control group), time (mice [4]; [8]): 2.9 times | Increasing rate (treatment group/control group), length (mice [4]; 10 mg/Kg/day oral, lactation): 2.2 times | Increasing rate (treatment group/control group), time (mice [4]; 10 mg/Kg/day oral, lactation): 2.1 times | type I muscle fiber (mice [4]; ATPase staining and immunostaining): increased | running time (mice [4]; treadmill test): much extended | weight increase (C57BL/6 mice [5]): 23.1%
